Experimental data from PMC9572860, “Antiprotozoal Activity of Azabicyclo-Nonanes Linked to Tetrazole or Sulfonamide Cores” (Molecules, 2022).
pIC50: −log10 of the molar value. Read-outs that look alike come from different tables or passages of the source.

Experiments:
[1] = tested on: T. b. rhodesiense STIB 900; parameters: method as in doi:10.1007/s00706-007-0634-1; settings: cited from earlier work; for S.I. = IC50 (Cyt.)/IC50 (T.b.r.): L-6 cytotoxicity over T.b.r.; for pIC50: read-out: T. Brucei Rhodesiense IC50
P. falciparum K1 [2] = tested on: P. falciparum K1; parameters: method as in doi:10.1007/s00706-007-0634-1; settings: cited from earlier work; for pIC50: K1 strain resistant to chloroquine and pyrimethamine; for S.I. = IC50 (Cyt.)/IC50 (P.f. K1): L-6 cytotoxicity over P.f. K1
L-6 cells [3] = tested on: L-6 cells; parameters: method as in doi:10.1007/s00706-007-0634-1; settings: rat skeletal myoblasts; read-out: Cytotox. L-6 Cells IC50; cited from earlier work
L-6 cells [4] = test: In vitro cytotoxicity with L-6 cells; format: cell-based, rat; settings: rat skeletal myoblasts; average of four determinations; read-out: Cytotox. L-6 Cells IC50
Protocol: (§1) Compounds were tested for their activities against strains of P. falciparum and T. b. rhodesiense via microplate assays. Their cytotoxicity was determined with rat skeletal myoblasts (L-6 cells). Chloroquine and melarsoprol served as standards (Table 1).
(§2) Assays were performed in 96-well microtiter plates, each well containing 0.1 mL of RPMI 1640 medium supplemented with 1% L-glutamine (200 mM) and 10% fetal bovine serum and 4000 L-6 cells (a primary cell line derived from rat skeletal myoblasts, ATCC CRL-1458™). Serial drug dilutions of 11 three-fold dilution steps covering a range from 100 to 0.002 μg/mL were prepared. After 70 h of incubation, the plates were inspected under an inverted microscope to assure the growth of the controls and sterile conditions. Then, 0.01 mL resazurin solution (resazurin, 12.5 mg in 100 ml double-distilled water) was added to each well and the plates incubated for another 2 h. The plates were read with a Spectramax Gemini XS microplate fluorometer (Molecular Devices Cooperation, Sunnyvale, CA, USA) using an excitation wavelength of 536 nm and an emission wavelength of 588 nm. The IC50 values were calculated by linear regression from the sigmoidal dose inhibition curves using SoftmaxPro software (Molecular Devices Cooperation, Sunnyvale, CA, USA). Podophyllotoxin (Sigma P4405) was used as control.

P. falciparum K1 [5] = test: In vitro microplate 3H-hypoxanthine incorporation assay against P. falciparum K1; format: cell-based, Plasmodium falciparum; settings: for S.I. = IC50 (Cyt.)/IC50 (P.f. K1): L-6 cytotoxicity over P.f. K1; for pIC50: Plasmodium falciparum
Protocol: as §1
(§3) In vitro activity against erythrocytic stages of P. falciparum was determined using a ^3H-hypoxanthine incorporation assay, using the drug-sensitive NF54 strain [21] or the chloroquine- and pyrimethamine-resistant K1 strain [22]. Compounds were dissolved in DMSO at 10 mg/mL and added to parasite cultures incubated in RPMI 1640 medium without hypoxanthine, supplemented with HEPES (5.94 g/L), NaHCO3 (2.1 g/L), neomycin (100 U/mL), Albumax (5 g/L) and washed human red cells A+ at 2.5% hematocrit (0.3% parasitemia). Serial drug dilutions of 11 three-fold dilution steps covering a range from 100 to 0.002 µg/mL were prepared. The 96-well plates were incubated in a humidified atmosphere at 37 °C; 4% CO2, 3% O2, 93% N2. After 48 h, 0.05 mL of ^3H-hypoxanthine (=0.5 µCi) was added to each well of the plate. The plates were incubated for an additional 24 h under the same conditions. The plates were then harvested with a Betaplate cell harvester (Wallac, Zurich, Switzerland). The red blood cells were transferred onto a glass fiber filter and washed with distilled water. The dried filters were inserted into a plastic foil with 10 mL of scintillation fluid and counted in a Betaplate liquid scintillation counter (Wallac, Zurich, Switzerland). IC50 values were calculated from sigmoidal inhibition curves by linear regression using Microsoft Excel. Chloroquine (Sigma C6628) was used as control.

P. falciparum NF54 = test: In vitro microplate 3H-hypoxanthine incorporation assay against P. falciparum NF54; format: cell-based, Plasmodium falciparum
Protocol: as §1, §3

[6] = In vitro cytotoxicity with L-6 cells; format: cell-based, rat
Protocol: as §1, §2

[7] = tested on: T. b. rhodesiense STIB 900; test: In vitro microplate resazurin assay against T. brucei rhodesiense; format: cell-based, Trypanosoma brucei rhodesiense; settings: for S.I. = IC50 (Cyt.)/IC50 (T.b.r.): L-6 cytotoxicity over T.b.r.; for pIC50: Trypanosoma brucei, STIB 900 bloodstream forms, average of four determinations, read-out: T. Brucei Rhodesiense IC50
Protocol: as §1
Minimum essential medium (50 µL) supplemented with 25 mM HEPES, 1 g/L additional glucose, 1% MEM nonessential amino acids (100×), 0.2 mM 2-mercaptoethanol, 1 mM Na-pyruvate and 15% heat inactivated horse serum was added to each well of a 96-well microtiter plate. Serial drug dilutions of 11 three-fold dilution steps covering a range from 100 to 0.002 μg/mL were prepared. Then, 4 × 10^3 bloodstream forms of T. b. rhodesiense STIB 900 in 50 µL was added to each well and the plate incubated at 37 °C under a 5% CO2 atmosphere for 70 h. Ten microliters of resazurin solution (resazurin, 12.5 mg in 100 mL double-distilled water) was then added to each well and incubation continued for an additional 2–4 h. The plates were then read with a Spectramax Gemini XS microplate fluorometer (Molecular Devices Cooperation, Sunnyvale, CA, USA) using an excitation wavelength of 536 nm and an emission wavelength of 588 nm. Data were analyzed with the graphic program Softmax Pro (Molecular Devices Cooperation, Sunnyvale, CA, USA), which calculated IC50 values by linear regression and 4-parameter logistic regression from the sigmoidal dose inhibition curves. Melarsoprol (Arsobal Sanofi-Aventis, received from WHO) was used as control.

[8] = K1 strain resistant to chloroquine and pyrimethamine, average of four determinations, read-out: P. Falciparum K1 IC50

Compound | S.I. = IC50 (Cyt.)/IC50 (T.b.r.) [1] | pIC50 [1] | pIC50 (P. falciparum K1 [2]) | S.I. = IC50 (Cyt.)/IC50 (P.f. K1) (P. falciparum K1 [2]) | pIC50 (L-6 cells [3]) | S.I. = IC50 (Cyt.)/IC50 (P.f. K1) (P. falciparum K1 [5]) | S.I. = IC50 (Cyt.)/IC50 (T.b.r.) [7] | pIC50 [7] | pIC50 (P. falciparum K1 [5]; [8]) | IC50 at 72 h ([6]; rat) [nM] | other results
Cc1ccc(S(=O)(=O)N2CCC3(N4CCCC4)CC(c4ccccc4)C2C(c2ccccc2)C3)cc1 (centres unmarked) [Compound 17] | 7.48 | 5.90 | 5.89 | 7.25 | 5.03 |  |  |  |  |  | 
Cc1ccc(S(=O)(=O)N2CCC3(N4CCCCC4)CC(c4ccccc4)C2C(c2ccccc2)C3)cc1 (centres unmarked) [Compound 16] | 3.96 | 5.58 | 5.90 | 8.33 | 4.98 |  |  |  |  |  | 
COc1cc([C@@H]2c3cc4c(cc3[C@H](O)[C@H]3COC(=O)[C@H]23)OCO4)cc(OC)c1OC [POD, podophyllotoxin, reference compound] |  |  |  |  |  |  |  |  |  |  | pIC50 (L-6 cells [4]): 7.92
CCN(CC)CCCC(C)Nc1ccnc2cc(Cl)ccc12 (centres unmarked) [CQ, chloroquine, reference compound] |  |  |  |  |  | 606 |  |  |  |  | pIC50 (P. falciparum K1 [5]; K1, read-out: P. Falciparum K1 IC50): 6.82; S.I. = IC50 (Cyt.)/IC50 (P.f. NF54) (P. falciparum NF54; L-6 cytotoxicity over P.f. NF54): 23308; pIC50 (P. falciparum NF54; Plasmodium falciparum, NF54, read-out: P. Falciparum NF54 IC50): 8.41; IC50 at 72 h ([6]; rat skeletal myoblasts, average of four determinations, read-out: Cytotox. L-6 Cells IC50): 90900 nM
CN(C)C12CCN(CCN)C([C@@H](c3ccccc3)C1)[C@@H](c1ccccc1)C2 (racemic) [Compound 6, rac-(7R,8R)-2-[5-(Dimethylamino)-7,8-diphenyl-2-azabicyclo[3.2.2]nonan-2-yl]ethan-1-amine] |  |  |  |  |  | 59.7 | 7.36 | 5.53 | 6.44 | 21500 | 
NCCN1CC2[C@H](c3ccccc3)CC(N3CCCC3)(C[C@H]2c2ccccc2)C1 (racemic) [Compound 9, rac-(6R,9R)-2-[6,9-Diphenyl-1-(pyrrolidin-1-yl)-3-azabicyclo[3.2.2]nonan-3-yl]ethan-1-amine] |  |  |  |  |  | 14.5 | 21.7 | 6.38 | 6.20 | 9120 | 
